# Target: PRMT5 (protein arginine methyltransferase 5) (Homo sapiens, UniProt O14744)
# Assay: SPR with immobilized PRMT5 N-terminal TIM barrel
# Format: binding
# Sequence of PRMT5 (protein arginine methyltransferase 5) (O14744 1-292): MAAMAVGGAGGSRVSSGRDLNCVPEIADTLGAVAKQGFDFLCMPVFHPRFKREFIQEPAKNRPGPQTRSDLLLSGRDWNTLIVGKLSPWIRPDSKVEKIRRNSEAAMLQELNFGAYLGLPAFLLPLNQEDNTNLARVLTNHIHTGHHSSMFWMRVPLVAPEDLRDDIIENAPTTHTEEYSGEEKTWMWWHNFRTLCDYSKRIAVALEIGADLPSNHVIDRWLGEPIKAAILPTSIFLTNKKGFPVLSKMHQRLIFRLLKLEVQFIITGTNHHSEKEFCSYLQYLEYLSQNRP
smiles,measurement,value
O=C(Cc1csc(-c2ccc(C(F)(F)F)cc2)n1)Nc1ccc2oc(=O)[nH]c2c1 [Z319334062],Kd,21.5 µM

# — paper PMC11740121 (ACS Omega, 2025)
